Data reported in patent US8816095B2, “Na channels, disease, and related assays and compositions” (Georgetown University, priority 2008, dated 2014).

Experiments:
[1] = Incidence of prostate cancer in epileptic men treated with sodium channel blockers; design: species or system human; conditions: 1427 epileptic men given drug vs 14270 control, 1994 to 2003
Text: The incidence of prostate cancer in epileptic men treated with sodium channel blockers was studied from 1994 to 2003. In the study, 1427 epileptic men were given phenyloin as a sodium channel blocker while 14270 epileptic men were not given a sodium channel blocker (control).

[2] = test system: Na+ channel site 2 binding site; experiment: [3H]-BTX assay, rat forebrain membranes; conditions: ± S.E.M., n in brackets
Description: In order to determine if the hermitamides bind to the sodium channel, the natural products, their enantiomers, and the racemic mixture were tested for their ability to displace [^3H]-batrachatoxin. Batrachatoxin is a lipid-soluble neurotoxin that binds to site 2 of the sodium channel. This site is known to overlap with the local anesthetic binding […]. Ligands known to bind to […] of the sodium channel include anesthetics, anticonvulsants and antiarrthymics. As a control, phenyloin, a clinically-used sodium channel blocker that is known to displace [^3H]BTX was also included.
The assays were run at 10 μM and recorded as percent displacement of BTX.
Briefly, rat forebrain membranes (10 mg tissue/well) were incubated with [^3H]-BTX (30-60 Ci/mmol). […] The reaction was terminated by rapid vacuum filtration of the reaction contents onto glass fiber filters. Radioactivity trapped onto the filters was determined and compared with control values to ascertain any interactions of the test compound with the Na^+ channel site 2 binding site. Aconitine (1 μM) was used as a positive control (Sigma Aldrich, Inc., St. Louis, Mo.).

[3] = molecular target: T1, human Nav1.2 (Homo sapiens, UniProt Q99250); experiment: hNav1.2 functional block, whole-cell patch clamp; type: cell-based
T1 construct: host or cells: HEK
Description: Of the 20 analogs tested, six had [^3H]-BTX displacement characteristics much greater then that of phenyloin (Table 7), see Schemes 5, 6, 7 and 8 for the chemical synthesis and structure of the tested compounds. Compound 26, having the greatest [^3H]-BTX displacement at 86% ([…]), was further tested for VGSC functional blocking ability in HEK cells stably expressing Nav1.2 (Table 8).
In addition the functional blocking ability of 9 was tested after site two affinities was confirmed. The potential reason for this increased blocking ability stems from the dansyl addition in a hydrophobically receptive region of the binding site in the VGSC (Anderson, J. D., et al. Mol. Cancer. Ther. 2003, 2, 1149-1154; Lenkowski, P et al. Neuropharmacology, 2007, 52, 1044-1054). This enhanced potency could be due to the dansyl substituent interacting with L1465 and 11469, located in S6 of domain III in the binding site, which are believed to be the source of hydrophobic receptivity 17. The ability to inhibit VGSC currents is an important property and represents functional blocking. The ability of CDPNS to inhibit sodium channel currents was assessed at 10 and 100 μM against human Nav1.2 by patch clamp assay (FIG. 10).
Human embryonic kidney cells (HEK) cells stably expressing human Nav1.2 were a kind gift from Dr. H. A. Hartmann (University of Baltimore, Md., USA) and were grown in DMEM/F12 media (Invitrogen, Corp, CA, USA) supplemented with 10% fetal bovine serum, penicillin (100 U/ml), streptomycin (100 μg/ml) and G418 (500 μg/ml; Sigma, Mo., USA). Cells were grown in a humidified atmosphere of 5% CO2 and 95% air at 37° C.
Sodium currents were recorded using the whole-cell configuration of the patch clamp recording technique with an Axopatch 200 amplifier (Axon Instruments, Foster City, Calif.). All voltage protocols were applied using pCLAMP 9 software (Axon, USA) and a Digidata 1322A (Axon, USA). Currents were amplified and low pass filtered (2 kHz) and sampled at 33 kHz. Borosilicate glass pipettes were pulled using a Brown-Flaming puller (model P87, Sutter Instruments Co, Novato, Calif.) and heat polished to produce electrode resistances of 0.5-1.5 MΩ when filled with the following electrode solution (in mM); CsCl 130, MgCl2 1, MgATP 5, BAPTA 10, HEPES 5 (pH adjusted to 7.4 with CsOH). Cells were plated on glass coverslips and superfused with solution containing the following composition; (in mM) NaCl 130, KCl 4, CaCl2 1, MgCl2 5, HEPES 5, and glucose 5 (pH adjusted to 7.4 with NaOH).
Compound 26 was prepared as 100 mM stock solutions in dimethyl sulfoxide (DMSO) and diluted to desired concentration in perfusion solution. The maximum DMSO concentration used was 0.1% and had no effect on current amplitude. All experiments were performed at room temperature (20-22° C.). After establishing whole-cell, a minimum series resistance compensation of 75% was applied. Sodium currents were elicited by a depolarizing step from a holding potential of −100 mV to +10 mV for a duration of 25 ms at 15 s intervals. Compound 26 was applied after a 3 min control period and continued until a steady state current amplitude was observed. All data represent percentage mean block±standard error of the mean (S.E.M.).

T1 sequence (Q99250 whole entry): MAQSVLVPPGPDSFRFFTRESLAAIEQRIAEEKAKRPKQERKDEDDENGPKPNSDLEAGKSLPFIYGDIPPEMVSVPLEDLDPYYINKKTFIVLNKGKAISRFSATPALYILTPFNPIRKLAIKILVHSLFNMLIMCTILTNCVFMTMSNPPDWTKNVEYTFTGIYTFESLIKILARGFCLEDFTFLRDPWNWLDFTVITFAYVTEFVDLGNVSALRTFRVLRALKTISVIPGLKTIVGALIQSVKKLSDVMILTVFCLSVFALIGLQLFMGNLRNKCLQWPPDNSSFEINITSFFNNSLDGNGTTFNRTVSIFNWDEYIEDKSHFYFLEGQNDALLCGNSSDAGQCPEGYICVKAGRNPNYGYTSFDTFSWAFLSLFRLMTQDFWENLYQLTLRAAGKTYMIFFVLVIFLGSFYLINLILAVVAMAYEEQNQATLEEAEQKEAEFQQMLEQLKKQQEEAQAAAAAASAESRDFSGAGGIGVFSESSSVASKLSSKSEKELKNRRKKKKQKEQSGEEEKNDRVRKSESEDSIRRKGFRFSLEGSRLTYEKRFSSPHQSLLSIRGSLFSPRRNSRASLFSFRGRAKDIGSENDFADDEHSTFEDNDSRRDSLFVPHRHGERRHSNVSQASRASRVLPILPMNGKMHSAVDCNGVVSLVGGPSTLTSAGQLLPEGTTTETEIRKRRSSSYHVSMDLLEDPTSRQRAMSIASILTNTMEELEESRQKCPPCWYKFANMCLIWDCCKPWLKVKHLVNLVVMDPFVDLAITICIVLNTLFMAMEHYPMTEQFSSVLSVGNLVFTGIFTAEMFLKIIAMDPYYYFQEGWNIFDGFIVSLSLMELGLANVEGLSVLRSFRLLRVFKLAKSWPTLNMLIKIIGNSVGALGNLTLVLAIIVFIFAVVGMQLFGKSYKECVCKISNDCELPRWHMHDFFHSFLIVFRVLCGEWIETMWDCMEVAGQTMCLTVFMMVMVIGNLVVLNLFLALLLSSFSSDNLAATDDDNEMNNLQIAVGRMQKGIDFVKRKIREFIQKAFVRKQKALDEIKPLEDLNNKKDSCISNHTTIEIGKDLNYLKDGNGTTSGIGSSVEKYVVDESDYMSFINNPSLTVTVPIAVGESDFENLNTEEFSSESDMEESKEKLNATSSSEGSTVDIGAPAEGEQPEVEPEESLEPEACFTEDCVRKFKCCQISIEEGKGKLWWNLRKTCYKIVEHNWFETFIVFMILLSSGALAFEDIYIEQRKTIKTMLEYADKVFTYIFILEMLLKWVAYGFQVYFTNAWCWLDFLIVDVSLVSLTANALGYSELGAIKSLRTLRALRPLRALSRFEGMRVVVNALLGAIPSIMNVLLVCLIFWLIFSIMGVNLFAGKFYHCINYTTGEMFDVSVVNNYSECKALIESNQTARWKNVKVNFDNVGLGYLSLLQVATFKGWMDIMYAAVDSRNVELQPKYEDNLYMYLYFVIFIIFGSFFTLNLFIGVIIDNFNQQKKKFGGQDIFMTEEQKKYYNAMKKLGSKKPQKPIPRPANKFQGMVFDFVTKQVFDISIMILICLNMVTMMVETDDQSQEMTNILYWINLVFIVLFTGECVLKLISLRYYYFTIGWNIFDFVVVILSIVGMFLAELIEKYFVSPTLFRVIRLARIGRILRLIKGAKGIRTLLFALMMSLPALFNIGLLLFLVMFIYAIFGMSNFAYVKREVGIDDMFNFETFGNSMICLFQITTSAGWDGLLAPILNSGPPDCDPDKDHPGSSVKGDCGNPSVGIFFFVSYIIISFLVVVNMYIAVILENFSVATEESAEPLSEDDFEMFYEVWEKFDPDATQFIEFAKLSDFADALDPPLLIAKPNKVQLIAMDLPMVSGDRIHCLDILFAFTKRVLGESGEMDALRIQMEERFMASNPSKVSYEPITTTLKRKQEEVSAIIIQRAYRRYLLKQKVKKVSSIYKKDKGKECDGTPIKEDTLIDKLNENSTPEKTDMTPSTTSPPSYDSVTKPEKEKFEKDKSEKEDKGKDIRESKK

O=C1NC(=O)C(c2ccccc2)(c2ccccc2)N1 [DPH, Diphenylhydantoin, reference compound]
less likely to be diagnosed with prostate cancer [1]: 40%
% [3H]-BTX Displacement At 10 μM [2]: 19.78 ± 1.21 (2) %
% hNaV 1.2 Functional Block (10 μM) ([3]; Table 8): 10.9 ± 4.2%
% hNaV 1.2 Functional Block (10 μM) ([3]; Table 9): 10.9 ± 4.2%
% Nav 1.2 Functional Block (10 μm) ([3]; 10 μm, Table 13): 10.9 ± 4.2%
